pIC50: −log10 of the molar value. Where two headings read alike, the source gives them in different places.
Columns and labels:
[1] = molecular target: T1, HERG (IKr) potassium channel (Homo sapiens, UniProt Q12809); experiment: HERG (IKr current) assay; format: cell-based; details: 30 μM, HEK293 cells transfected with HERG
T1 construct: expressed in transfected cells; host or cells: HEK293
Experimental: (§1) Human embryonic kidney (HEK293) cells stably transfected with the human ether-a-go-go related gene (HERG) cDNA were utilized in the HERG assay. Rabbit Purkinje fibres were used for the Purkinje-fibre action potential assay^7.
In a non-GLP study^7, Compound A was evaluated for effects on potassium channel current at concentrations of 10 and 30 μM. The human ether-a-go-go related gene (HERG) encodes the rapidly activating delayed-rectifier potassium channel (IKr) in heart. […] Based on the findings, it is unlikely that Compound A would cause IKr-mediated increases in the QT interval at anticipated therapeutic plasma concentrations.

rabbit Purkinje fiber = experiment: Rabbit Purkinje-fiber action potential model; format: cell-based; details: 30 μM
Experimental: as §1
In a non-GLP study^7, Compound A, at concentrations of 3, 10 and 30 μM, was evaluated in an in vitro rabbit Purkinje fiber model. This model was developed to determine if a compound would affect the action-potential duration of the Purkinje fiber or other action-potential parameters. […] Based on these findings, Compound A is unlikely to provoke clinically relevant electrocardiographic effects in vivo.

[2] = Stability in rat EDTA plasma and whole blood; format: in vitro ADME
Experimental: Plasma samples from exploratory pharmacokinetic studies were analyzed for Compound A concentrations using an LC/MS/MS assay with a standard curve range of 3.9 to 2000 ng/mL. In pharmacodynamic studies, Compound A concentrations were determined using an LC/MS/MS assay with a standard curve range of 10-40000 nM (5.23-20920 ng/mL) in mouse plasma. For toxicology studies, validated LC/MS/MS assays were used to determine the concentrations of Compound A in rat and dog plasma. Analytical data management for the validated assays was carried out using Watson®. The standard curve range for the validated assay in both matrices was 2 to 500 ng/mL of Compound A. The coefficient of variation for the inter- and intra-assay precision in rat and dog plasma was within 9% and the accuracy was greater than 92%. […] Compound A was stable for at least 4 months at !20EC and through at least 3 freeze-thaw cycles in rat and dog EDTA plasma. In addition, Compound A was stable in fresh rat and dog EDTA whole blood for at least 1 h at 4EC.

[3] = Single dose IV toxicokinetics in rats; format: in vivo; details: both sexes, rat, plasma, IV 1, 5 and 7 mg/kg, across doses and sex
Experimental: The single dose IV toxicokinetics of Compound A in rats were evaluated as a part of a toxicology study. Compound A, prepared in 50 mM citrate buffer (pH 5), was given intravenously (over approximately 1-2 min period) at doses of 1, 5, and 7 mg/kg to 3 rats/gender/dose. Blood samples were collected at 3, 15, and 30 minutes, and at 1, 3, 6, 12, and 24 h after dosing. Plasma concentrations of Compound A were determined using a validated LC/MS/MS assay with a standard curve range of 2-500 ng/mL. […] Systemic exposures were reasonably similar between male and female rats. […] Furthermore, there appeared to be no differences in the toxicokinetics of Compound A between male and female rats.

[4] = Single dose IV toxicokinetic study in dogs; format: in vivo; details: both sexes, dog, plasma, IV infusion; for Cmax: combined across gender
Experimental: The single dose IV toxicokinetics of Compound A were evaluated in dogs as a part of a toxicology study. Compound A, prepared in 50 mM citrate buffer (pH 5), was given by IV infusion (over approximately 2-3 min period) at nominal doses of 0.07 and 0.35 mg/kg (the actual doses were 0.055 and 0.27 mg/kg, respectively) to 2 dogs/sex/dose. Blood samples were collected at 5 and 30 minutes, and at 1, 3, 6, 12, and 24 h after dosing. Plasma concentrations of Compound A were determined using a validated LC/MS/MS assay with a standard curve range of 2-500 ng/mL. […] Definitive comparison between sex was not made due to limited sample size per sex; however, it appeared that there were no marked differences in the systemic exposure to Compound A between male and female dogs.

CYP3A4 [5] = molecular target: T2, CYP3A4 (Homo sapiens, UniProt P08684); experiment: Metabolism by specific CYP enzymes (human liver microsomes with specific inhibitors); format: in vitro ADME
T2 sequence (P08684 whole entry): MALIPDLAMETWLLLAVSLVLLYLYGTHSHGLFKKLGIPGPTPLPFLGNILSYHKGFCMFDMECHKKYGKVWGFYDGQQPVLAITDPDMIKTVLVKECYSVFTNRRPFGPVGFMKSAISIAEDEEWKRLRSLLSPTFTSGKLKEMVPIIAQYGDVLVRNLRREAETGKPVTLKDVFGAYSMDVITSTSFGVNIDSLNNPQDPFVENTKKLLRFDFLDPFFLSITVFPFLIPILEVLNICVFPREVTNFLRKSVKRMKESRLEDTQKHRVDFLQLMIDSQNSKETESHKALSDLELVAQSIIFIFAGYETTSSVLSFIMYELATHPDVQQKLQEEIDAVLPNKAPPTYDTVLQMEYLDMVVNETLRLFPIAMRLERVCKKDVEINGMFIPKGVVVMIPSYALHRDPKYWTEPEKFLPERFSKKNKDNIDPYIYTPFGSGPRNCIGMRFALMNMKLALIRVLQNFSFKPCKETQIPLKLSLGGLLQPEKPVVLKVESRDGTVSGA
Experimental: Compound A was incubated with human liver microsomes along with compounds specific for the inhibition of individual cytochrome P450s commonly involved in drug metabolism. The inhibitors used were; furafylline (CYP1A2), sulfaphenazole (CYP2C9), tranylcypromine (CYP2C19), quinidine (CYP2D6), troleandomycin (CYP3A4), and ketoconazole (CYP3A4).

[6] = test system: Pat-7 human ovarian carcinoma; details: Balb/c nu/nu, mouse, in vivo, iv
[7] = rat, in vivo
in vivo [8] = details: Balb/c nu/nu, mouse, po
in vivo [9] = details: male, Sprague-Dawley, rat, plasma, other: intraarterial (IA), 2 mg/kg
Experimental: In another pharmacokinetic study, fasted male Sprague-Dawley rats, assigned to two IA groups (2 mg/kg) and one oral (8 mg/kg) group (n=3/group), were administered a single dose of Compound A. Compound A was prepared for IA administration in two separate vehicles: vehicle 1, cremophor:ethanol:water (10:10:80), and vehicle 2, ethanol:phosphate buffer, 0.05 M, pH 7.4 (6:94). The vehicle for the oral administration was ethanol:phosphate buffer, 0.3 M, pH 8 (18:82). Samples were collected at 10, 15, 30, and 45 min, and at 1, 2, 4, 6, 8, 10, 24, and 48 hours after dosing.

in vitro = details: human, Caco-2
CYP2C9 = CYP2C9 (Homo sapiens, UniProt P11712); experiment: biochemical
CYP2C9, sequence (P11712 whole entry): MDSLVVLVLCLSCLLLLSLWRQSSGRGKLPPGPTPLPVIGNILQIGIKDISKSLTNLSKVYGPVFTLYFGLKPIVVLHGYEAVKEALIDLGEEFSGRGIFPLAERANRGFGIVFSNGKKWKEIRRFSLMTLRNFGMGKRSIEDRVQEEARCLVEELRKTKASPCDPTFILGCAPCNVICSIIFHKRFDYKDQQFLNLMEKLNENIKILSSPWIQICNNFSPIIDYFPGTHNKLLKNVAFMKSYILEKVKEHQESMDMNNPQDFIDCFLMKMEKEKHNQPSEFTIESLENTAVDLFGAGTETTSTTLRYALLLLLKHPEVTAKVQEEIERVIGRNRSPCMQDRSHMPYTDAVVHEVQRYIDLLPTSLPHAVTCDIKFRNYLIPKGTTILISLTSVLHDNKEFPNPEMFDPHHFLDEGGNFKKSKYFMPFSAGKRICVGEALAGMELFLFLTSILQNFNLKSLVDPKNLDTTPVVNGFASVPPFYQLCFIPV

Liver S9 incubation, dog = details: dog liver S9, 20 μM
[10] = Liver S9 incubation, mouse; details: mouse liver S9, 20 μM
[11] = Liver S9 incubation, human; details: human liver S9, 20 μM
[12] = Microsomal incubation, mouse; details: mouse liver microsomes + NADPH, 20 μM
[13] = Microsomal incubation, human; details: human liver microsomes + NADPH, 20 μM
CYP3A4 [14] = molecular target: T2, CYP3A4; experiment: Inhibition of human CYP enzymes, CYP3A4

T1 sequence (Q12809 whole entry): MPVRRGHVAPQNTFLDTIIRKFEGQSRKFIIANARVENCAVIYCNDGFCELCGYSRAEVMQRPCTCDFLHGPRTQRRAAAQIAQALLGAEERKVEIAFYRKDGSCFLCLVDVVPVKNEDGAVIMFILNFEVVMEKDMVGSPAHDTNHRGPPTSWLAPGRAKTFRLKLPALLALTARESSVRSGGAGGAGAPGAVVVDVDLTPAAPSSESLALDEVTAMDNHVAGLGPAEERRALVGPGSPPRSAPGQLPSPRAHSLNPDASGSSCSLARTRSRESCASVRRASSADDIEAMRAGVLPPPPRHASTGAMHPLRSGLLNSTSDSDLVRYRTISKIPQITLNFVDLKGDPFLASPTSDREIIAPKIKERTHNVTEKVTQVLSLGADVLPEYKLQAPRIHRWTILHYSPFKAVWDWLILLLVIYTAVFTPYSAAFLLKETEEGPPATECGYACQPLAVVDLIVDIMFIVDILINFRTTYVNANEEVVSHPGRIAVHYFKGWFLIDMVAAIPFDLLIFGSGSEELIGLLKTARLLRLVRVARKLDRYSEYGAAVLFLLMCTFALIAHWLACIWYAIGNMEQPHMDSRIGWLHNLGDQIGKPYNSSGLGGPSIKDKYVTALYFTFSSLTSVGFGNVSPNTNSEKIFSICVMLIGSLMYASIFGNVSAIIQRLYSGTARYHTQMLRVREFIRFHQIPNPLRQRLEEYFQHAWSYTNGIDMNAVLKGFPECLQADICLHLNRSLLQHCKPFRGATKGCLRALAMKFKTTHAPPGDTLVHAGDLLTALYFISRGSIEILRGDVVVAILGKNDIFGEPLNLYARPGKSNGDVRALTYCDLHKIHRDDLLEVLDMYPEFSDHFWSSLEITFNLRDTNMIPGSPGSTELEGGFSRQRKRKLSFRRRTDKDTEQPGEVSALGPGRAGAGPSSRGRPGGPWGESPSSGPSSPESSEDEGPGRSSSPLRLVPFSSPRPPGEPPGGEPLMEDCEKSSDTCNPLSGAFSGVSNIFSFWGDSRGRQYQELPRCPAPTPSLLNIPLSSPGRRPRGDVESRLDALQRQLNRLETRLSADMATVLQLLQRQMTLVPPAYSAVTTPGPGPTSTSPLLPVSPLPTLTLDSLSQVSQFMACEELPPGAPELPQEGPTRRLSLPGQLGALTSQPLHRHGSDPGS

C/C(=C\c1csc(CN)n1)[C@@H]1C[C@@H]2O[C@]2(C)CCC[C@H](C)[C@H](O)[C@@H](C)C(=O)C(C)(C)[C@@H](O)CC(=O)O1 (relative stereo) [Compound A, [1S-[1R*,3R*(E),7R*,10S*,11R*,12R*,16S*]]-3-[2-[2-(aminomethyl)-4-thiazolyl]-1-methylethenyl]-7,11-dihydroxy-8,8,10,12,16-pentamethyl-4,17-dioxabicyclo[14.1.0]heptadecane-5,9-dione]
maximum inhibition of IKr current [1]: 13.5%
decrease of Purkinje fiber APD90 (rabbit Purkinje fiber): less than 10%
stable through freeze-thaw cycles ([2]; rat EDTA plasma): at least 3 freeze-thaw cycles
stable in frozen plasma ([2]; rat EDTA plasma, !20EC): at least 4 months
stable in plasma prior to processing ([2]; rat EDTA plasma, room temperature): at least 4 h
stable in fresh whole blood ([2]; rat EDTA whole blood, 4EC): at least 1 h
stable in an autosampler after processing ([2]; rat plasma samples, 4EC): at least 5 days
AUC [3]: 159 to 1940 ng·h/mL
Cmax [3]: 183 to 3910 ng/mL
AUC ([4]; 0.055 mg/kg): 48.3 ng·h/mL
Cmax ([4]; 0.055 mg/kg): 104 ng/mL
AUC ([4]; 0.27 mg/kg): 362 ng·h/mL
Cmax ([4]; 0.27 mg/kg): 664 ng/mL
effect of CYP3A4 inhibitors (troleandomycin, ketoconazole) on biotransformation (CYP3A4 [5]): completely inhibited
OD (optimal dose or maximum tolerated dose) [6]: 8 mg/kg
drug related material in bile [7]: No drug related material was detected
percent of the dose recovered in the urine as parent ([7]; iv, 2 mg/kg): approximately 18%
percent of the dose recovered in the urine as parent ([7]; po, 8 mg/kg): ~2.4%
MTD (in vivo [8]): 90 mg/kg
AUC (in vivo [9]): 2890 ng·h/mL
AUC (in vivo [9]; pH 7.4): 717 ng·h/mL
Papp at 200 μM (in vitro): 6 ×10⁻⁶ cm/s
pIC50 (CYP2C9): 4.97
rate of oxidative metabolism (Liver S9 incubation, dog): 0.03
rate of oxidative metabolism [10]: 0.06
rate of oxidative metabolism [11]: 0.06
rate of oxidative metabolism [12]: 0.3
rate of oxidative metabolism [13]: 0.21 mmol/min/mg protein
pIC50 (CYP3A4 [14]): 5.15
